Laboratory results: publication PMC8936499, “Cytochrome P450 168A1 from Pseudomonas aeruginosa is involved in the hydroxylation of biologically relevant fatty acids” (PLoS ONE, 2022)

Key:
[1] = target: T1, CYP168A1 (Pseudomonas aeruginosa, UniProt Q9I107); details: 50 μM substrate, 2 μM CYP168A1, 3 hours at 37°C
[2] = tested on: CYP168A1; parameters: method as in PMID 35085556; details: arachidonic acid as substrate, CYP168A1:ketoconazole ratio 5μM:10μM; cited from earlier work
[3] = tested on: Streptomyces peucetius CYP147F1; parameters: method as in PMID 24055535; details: cited from earlier work
[4] = tested on: CYP168A1; details: cited from earlier work
[5] = target: T1, CYP168A1; assay: Azole binding studies (spectral titration, type II difference spectra); details: read-out: apparent dissociation constant (Kd) of azole-CYP168A1 complex; 2 μM CYP168A1, rearranged Morrison equation, duplicate
[6] = tested on: Candida albicans CYP51; parameters: method as in PMID 23274672, PMID 20625155; details: cited from earlier work

T1 sequence (Q9I107 entry or part of it): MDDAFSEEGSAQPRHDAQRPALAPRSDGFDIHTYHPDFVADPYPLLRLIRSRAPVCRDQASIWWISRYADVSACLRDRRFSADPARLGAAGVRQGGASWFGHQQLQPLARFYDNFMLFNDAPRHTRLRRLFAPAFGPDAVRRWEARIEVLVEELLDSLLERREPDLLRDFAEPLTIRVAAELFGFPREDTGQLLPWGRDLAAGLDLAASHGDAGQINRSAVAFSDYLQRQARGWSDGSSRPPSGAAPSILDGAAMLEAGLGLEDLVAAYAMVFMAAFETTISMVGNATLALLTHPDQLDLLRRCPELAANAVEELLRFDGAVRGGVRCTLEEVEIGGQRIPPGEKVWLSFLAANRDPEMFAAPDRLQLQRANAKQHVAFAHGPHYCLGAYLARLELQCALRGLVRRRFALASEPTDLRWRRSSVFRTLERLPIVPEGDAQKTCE

Row | SMILES | oxygenated products formed [1] | Kd [5] [nM] | Kd [6] [nM] | also measured
1 | CC(C)CCC[C@@H](C)[C@H]1CC[C@H]2[C@@H]3CCC4=CC(=O)CC[C@]4(C)[C@H]3CC[C@]12C [cholesta-4-ene-3-one] | no oxygenated products |  |  | 
2 | CC(C)CCC[C@@H](C)[C@H]1CC[C@H]2[C@@H]3CC=C4C[C@@H](O)CC[C@]4(C)[C@H]3CC[C@]12C [cholesterol] | no oxygenated products |  |  | 
3 | CC(=O)N1CCN(c2ccc(OCC3COC(Cn4ccnc4)(c4ccc(Cl)cc4Cl)O3)cc2)CC1 (stereo not shown) [ketoconazole] |  |  |  | reduction in enzyme activity [2]: ~70%
4 | CCCCCCCCCCCC(=O)O [lauric acid] |  |  |  | enzyme molecules undergoing low- to high-spin state transition [3]: 95%; CYP168A1 Km, fold higher than the Ks value [4]: 25 fold; CYP168A1 turnover number [4]: 0.138 min⁻¹
5 | Clc1ccc(COC(Cn2ccnc2)c2ccc(Cl)cc2Cl)c(Cl)c1 (stereo not shown) [miconazole] |  | 190 ± 60 | 26 | 
6 | CC(C)(C)C(O)(CCc1ccc(Cl)cc1)Cn1cncn1 (stereo not shown) [tebuconazole] |  | 180 ± 10 | 36 | 
7 | C[C@]12CC[C@H]3[C@@H](CCC4=CC(=O)CC[C@@]43C)[C@@H]1CC[C@@H]2O [testosterone] | no oxygenated products |  |  | 
8 | C[C@@H](c1ncncc1F)[C@](O)(Cn1cncn1)c1ccc(F)cc1F [voriconazole] |  | 2050 ± 540 | 10 | 
